{"source": "patent US7195787B1", "about": "“Skincare composition against free radicals” (The Boots Company PLC, priority 1999, dated 2007)", "experiment": "lipid peroxidation assay: protection of linoleic acid from UV light", "format": "biochemical", "settings": "antioxidant at the printed concentration (1.50%, 0.10%, 0.10%, combination 1.70%)", "procedure": "The following procedure tests the ability of antioxidants to protect lipids form the damaging effects of UV light. The antioxidants to be tested are morus alba (“Mulberry Concentrate” from Aston Chemicals), magnesium ascorbyl phosphate and panax ginseng (“Phytexcell Panax ginseng” from Croda Chemicals Ltd). The antioxidants were tested individually at a particular concentration and in combination. In the test the antioxidant or combination of antioxidants is mixed with a known skin lipid (linoleic acid) and irradiated using UV light. The quantity of peroxides in each sample is measured colourimetrically after irradiation to assess the level of damage caused by peroxidation of the linoleic acid.\nA 1% lipid stock solution is prepared dissolving linoleic in an aqueous solution of octoxynol-9 (Triton X-100). Stock solutions in aqueous TBS buffer of the following antioxidants magnesium ascorbyl phosphate, morus alba and panax ginseng were prepared at 15%, 1.0% and 1.0% respectively. […]\nUsing a micropipette plate 7.5 μl of each sample is pipetted into 3 wells, i.e. in triplicate, and irradiated with UV light for 40 minutes. […] The reaction that occurs causes a colour change from colourless to blue which is measured colourimetrically at 675 nm. The more peroxides present the darker the blue colouration and the higher the observed absorbance."}
{"compound": "O=C1O[C@H]([C@@H](O)CO)C([O-])=C1OP(=O)([O-])[O-].O=C1O[C@H]([C@@H](O)CO)C([O-])=C1OP(=O)([O-])[O-].[Mg+2].[Mg+2].[Mg+2]", "note": "[Magnesium ascorbyl phosphate, magnesium ascorbyl phosphate]", "values": [{"measurement": "Absorbance", "setting": "675 nm, after 40 minutes UV, 0.5% linoleic acid", "value": 0.84}, {"measurement": "percentage of peroxidation observed when compared to that seen with the irradiated controls", "setting": "40 minutes UV", "value": ">100", "unit": "%"}]}
